Test results from patent publication US20170290806A1, “PCSK9 Inhibitors and Methods of Use Thereof” (Temple University-Of The Commonwealth System of Higher …, priority 2014, published 2017).
“Also recorded” adds a separate entry of the source.

Tests used:
PCSK9/LDLR interaction [1] = target: T1, PCSK9/LDLR interaction (Homo sapiens, UniProt Q8NBP7); test: LDLR upregulation in HepG2 cells; format: cell-based; set-up: the human full-length PCSK9 was cloned; expressed in transfected cells; settings: for up-regulation of endogenously expressed LDLR: compounds 1-50 uM; for EC50: endogenously expressed LDLR, transfected with PCSK9, compounds 1-50 uM, 43 hours, read-out: EC50 of up-regulation of LDLR
T1 sequence (Q8NBP7 153-692): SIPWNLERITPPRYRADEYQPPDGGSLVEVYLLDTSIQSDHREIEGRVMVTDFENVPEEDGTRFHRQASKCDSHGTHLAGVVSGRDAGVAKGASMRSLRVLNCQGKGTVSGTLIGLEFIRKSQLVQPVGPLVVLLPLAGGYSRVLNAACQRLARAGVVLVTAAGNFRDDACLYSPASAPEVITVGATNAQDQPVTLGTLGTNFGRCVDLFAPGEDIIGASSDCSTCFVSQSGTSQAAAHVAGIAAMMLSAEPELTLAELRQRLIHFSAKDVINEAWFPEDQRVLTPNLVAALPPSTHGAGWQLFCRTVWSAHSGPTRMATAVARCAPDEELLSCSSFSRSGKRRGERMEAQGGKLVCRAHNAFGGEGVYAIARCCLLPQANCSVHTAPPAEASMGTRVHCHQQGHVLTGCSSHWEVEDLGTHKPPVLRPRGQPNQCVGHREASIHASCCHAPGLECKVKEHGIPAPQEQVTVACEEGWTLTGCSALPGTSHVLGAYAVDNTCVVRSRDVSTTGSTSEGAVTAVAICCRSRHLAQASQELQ
T1 sequence (Q8NBP7 31-152 partner limits assumed): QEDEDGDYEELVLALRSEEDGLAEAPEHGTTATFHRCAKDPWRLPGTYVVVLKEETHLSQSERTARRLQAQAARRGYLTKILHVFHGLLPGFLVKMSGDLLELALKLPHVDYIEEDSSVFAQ
Method: (§1) HepG2 cells were seeded into 96 well plates in a MEM containing 10% Fetal Bovine Serum media and incubated overnight at 37° C. Cells were transiently transfected with PCSK9 cDNA constructs using the Lipofectamine-LTX. Compounds (1-50 uM) were added, followed by additional 43 hours of incubation. The cells were lysed and analyzed for LDLR expression and cell viability determined as described in FIG. 8.
(§2) Considering the difficulty in assaying the LDLR/PCSK9 binding, the approach was to develop and implement an innovative recombinant cell based assay where the full-length PCSK9 and the LDLR genes are expressed into HEK-293 cells, and allowed to decrease the LDLR level by PCSK9 (FIG. 7). Compounds that prevent the LDLR degradation without preventing the auto-processing and secretion of the PCSK9 were selected as potential candidates and were further evaluated using additional cell based assay using endogenously expressed LDLR in liver cells (HepG2 cells).
The compounds SBC-110,424, SBC-110, 433, and SBC-115,076 were also validated for their ability to up-regulate the endogenously expressed LDLR in HepG2 cells.

PCSK9/LDLR interaction [2] = target: T1, PCSK9/LDLR interaction; test: Recombinant cell based assay: LDLR upregulation in HEK293 cells transfected with LDLR and PCSK9; set-up: the human full-length PCSK9 was cloned; expressed in transfected cells; host or cells: HEK-293T; settings: for increase in the LDLR (intracellular recombinant LDLR upregulation) as comparable to control / EC50: HEK293 cells transfected with LDLR and PCSK9; for increase in the LDLR (intracellular recombinant LDLR upregulation) as comparable to control: compounds 1-50 μM; for EC50: compounds 1-50 uM, 43 hours incubation, read-out: EC50 of LDLR up-regulation; for IC50s (increase in the LDLR): PCSK9/LDLR HEK293 recombinant cell based assay
Method: as §1, with “HEK-293T” for “HepG2”, “DMEM” for “MEM”, “with LDLR and” for “with”, “7.” for “8.”
as §1, with “HEK-293T” for “HepG2”, “DMEM” for “MEM”, “with LDLR and” for “with”, “8. […] Compound SBC-130,022 has no effect in up-regulating LDLR.” for “8.”
as §2
Preparation of constructs: the human full-length PCSK9 was cloned. The cDNA encoding the PCSK9 sequence with and without a FLAG epitope tag (DYKDDDDK) were cloned by PCR and subcloned into mammalian expression vector containing the cytomegalovirus promoter-enhancer (pCMV-PCSK9-FLAG) (pCDNA3.1/PCSK9). For LDLR, the coding sequence was constructed without tag in mammalian expression vector (pCMV-LDLR) (pCDNA3.1/LDLR). The constructs were confirmed by sequence analysis
The pCDNA3.1/PCSK9, and the pCDNA3.1/LDLR constructs were used to transiently transfect mammalian cells. The human embryonic kidney (HEK)-293 cells were seeded (1×10^5 cells/well) in 24-well plates. Expression plasmids ([…]) were transiently transfected into HEK-293 cells with lipofectamine (Invitrogen) according to the manufacturer's protocol. Twenty four to forty eight hours after transfection, cells were harvested. The cells were then be lysed. Both cell lysate and supernatant were subjected to SDS-PAGE and immunoblot analysis using an anti-PCSK9 or LDLR antibody.
240 compounds identified from the virtual screen in a cell based assay for their potential to upregulate the LDLR in the presence of PCSK9 were tested as described above. Initial screening was done using 50 μM of the compounds. Each compound was added to the cell media in triplicates, and intrecellar LDLR was detected as described above. Each set of compounds were screened at least twice with all appropriate controls. Compounds that upregulate the LDLR were selected for further evaluation.
From the initial screening, 24 compounds were identified as potential hits. Hits confirmation was repeated in triplicates using 50 μM.

Row | up-regulation of endogenously expressed LDLR (PCSK9/LDLR interaction [1]) | EC50 (PCSK9/LDLR interaction [1]) | EC50 (PCSK9/LDLR interaction [2]) | IC50s (increase in the LDLR) (PCSK9/LDLR interaction [2]) | SMILES | increase in the LDLR (intracellular recombinant LDLR upregulation) as comparable to control (PCSK9/LDLR interaction [2])
1 | concentration dependent up-regulation | 430 nM | 3100 nM | low uM range | Cc1cc(C(=O)C2=C(O)C(=O)N(CCCN3CCOCC3)C2c2ccncc2)ccc1OCc1ccccc1 (stereo not shown) [SBC-115,076] | concentration dependent increase
2 | concentration dependent up-regulation | 2000 nM | 3500 nM | low uM range | CC(C)(C(=O)NCc1ccco1)n1cc(NC(=O)c2cccnc2)cn1 [SBC-110,424] | concentration dependent increase; also recorded: significant potency
